Assay results from ChEMBL document CHEMBL1201862, “PubChem BioAssay data set” (2004).
One block for each molecule: values may come before it. Calls of active or inactive are those of the source.

Key:
[1] = biological target: T1, E3 ubiquitin-protein ligase XIAP (Homo sapiens, UniProt P98170); test: Counter Screen using XIAP-Bir3 for Chemical Antagonists of Bir1/2 domains of IAP-family anti-apoptotic proteins. [Related pubchem assays (depositor defined):AID1018, AID1449, AID1514, AID1638, AID1749, AID1750, AID488957, AID488963]
[2] = biological target: T1, E3 ubiquitin-protein ligase XIAP; test: XIAP antagonists, biochemical, IAP family, fluorescence polarization (AID 1018); assay type: functional
[3] = biological target: T2, Sphingosine 1-phosphate receptor 4 (Homo sapiens, UniProt O95977); test: Fluorescence dose response cell-based high throughput screening assay for agonists of the Sphingosine 1-Phosphate Receptor 4 (S1P4). [Related pubchem assays: 1509 (Primary screen.), 1523 (Confirmation screen in triplicates.)]; assay type: functional
T2 sequence (O95977 whole entry): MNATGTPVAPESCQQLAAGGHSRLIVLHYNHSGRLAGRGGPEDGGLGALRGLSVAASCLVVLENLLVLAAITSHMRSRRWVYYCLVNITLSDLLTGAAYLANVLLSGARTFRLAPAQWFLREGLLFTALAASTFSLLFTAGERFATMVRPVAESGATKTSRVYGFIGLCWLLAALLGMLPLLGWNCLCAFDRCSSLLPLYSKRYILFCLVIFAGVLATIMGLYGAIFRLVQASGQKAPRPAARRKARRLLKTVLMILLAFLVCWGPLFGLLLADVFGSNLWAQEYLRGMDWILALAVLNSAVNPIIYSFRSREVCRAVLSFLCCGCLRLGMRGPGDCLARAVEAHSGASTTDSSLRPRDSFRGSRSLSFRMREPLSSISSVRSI

[4] = biological target: Sphingosine 1-phosphate receptor 1 (Homo sapiens, UniProt P21453); test: Fluorescence-based counterscreen assay for S1P4 agonists: Cell-based dose response high throughput screening assay to identify agonists of the Sphingosine 1-Phosphate Receptor 1 (S1P1). [Related pubchem assays (depositor defined):AID1509, AID1523, AID1801, AID463107, AID463118, AID463119, AID463122, AID463123, AID463129, AID463225, AID504400, AID504460]; assay type: functional
CAAX prenyl protease 2 = CAAX prenyl protease 2 (Homo sapiens, UniProt Q9Y256); test: human Rce1 protease inhibitors, dose response, biochemical, yeast membranes, quenched-peptide fluorescence, cherry-pick (AID 588849)
[5] = biological target: T3, RNA-binding protein pos-1 (Caenorhabditis elegans, UniProt G5EF15); test: inhibitors of POS-1/mex-3 RNA binding, dose response, biochemical, fluorescence polarization (AID 1964);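 further: purified POS-1 fused to maltose binding protein made in E. coli; potency of compounds blocking POS-1 binding to fluorescent RNA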
T3 sequence (G5EF15 whole entry): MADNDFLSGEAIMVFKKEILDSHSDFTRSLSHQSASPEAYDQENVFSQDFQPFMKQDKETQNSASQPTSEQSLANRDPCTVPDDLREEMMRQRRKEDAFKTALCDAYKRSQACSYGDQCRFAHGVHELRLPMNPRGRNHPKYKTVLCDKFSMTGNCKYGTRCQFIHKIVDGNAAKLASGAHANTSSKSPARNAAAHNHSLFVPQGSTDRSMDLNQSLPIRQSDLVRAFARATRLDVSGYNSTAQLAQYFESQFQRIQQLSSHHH

[6] = biological target: T4, Zinc finger protein mex-5 (Caenorhabditis elegans, UniProt Q9XUB2); test: MEX-5/TCR-2 RNA interaction inhibitors, dose response, biochemical, C. elegans, fluorescence polarization (AID 1960)
T4 sequence (Q9XUB2 whole entry): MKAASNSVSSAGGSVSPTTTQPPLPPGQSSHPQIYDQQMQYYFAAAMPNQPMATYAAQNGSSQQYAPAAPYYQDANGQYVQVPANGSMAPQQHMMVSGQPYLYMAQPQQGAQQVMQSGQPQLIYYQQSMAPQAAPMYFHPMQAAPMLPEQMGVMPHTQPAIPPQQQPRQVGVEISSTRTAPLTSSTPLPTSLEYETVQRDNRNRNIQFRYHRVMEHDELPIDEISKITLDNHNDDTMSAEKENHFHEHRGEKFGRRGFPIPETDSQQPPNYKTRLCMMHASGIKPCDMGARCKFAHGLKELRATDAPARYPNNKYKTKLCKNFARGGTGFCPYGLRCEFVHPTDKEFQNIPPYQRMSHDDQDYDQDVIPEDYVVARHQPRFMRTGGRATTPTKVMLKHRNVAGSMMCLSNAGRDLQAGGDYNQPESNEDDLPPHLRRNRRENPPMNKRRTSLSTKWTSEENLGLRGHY

[7] = Counterscreen for IDE inhibitors: Luminescence-based cell-based high throughput dose response assay to identify compounds that are cytotoxic to HEK cells. [Related pubchem assays: 434962 (Primary screen (IDE inhibitors in singlicate)), 449730 (Counterscreen (Cytotoxicity in triplicate)), 435028 (Confirmation (IDE inhibitors in triplicate)) …; assay type: functional; details: HEK293
Insulin-degrading enzyme = biological target: T5, Insulin-degrading enzyme (Homo sapiens, UniProt P14735); test: Dose Response: Fluorescence polarization-based cell-based high throughput dose response assay for inhibitors of insulin-degrading enzyme (IDE). [Related pubchem assays: 434962 (Primary screen (IDE inhibitors in singlicate)), 449730 (Counterscreen (Cytotoxicity in triplicate)), 435028 (Confirmation (IDE inhibitors in triplicate)), 434984 (Summary …; assay type: functional
T5 sequence (P14735 whole entry): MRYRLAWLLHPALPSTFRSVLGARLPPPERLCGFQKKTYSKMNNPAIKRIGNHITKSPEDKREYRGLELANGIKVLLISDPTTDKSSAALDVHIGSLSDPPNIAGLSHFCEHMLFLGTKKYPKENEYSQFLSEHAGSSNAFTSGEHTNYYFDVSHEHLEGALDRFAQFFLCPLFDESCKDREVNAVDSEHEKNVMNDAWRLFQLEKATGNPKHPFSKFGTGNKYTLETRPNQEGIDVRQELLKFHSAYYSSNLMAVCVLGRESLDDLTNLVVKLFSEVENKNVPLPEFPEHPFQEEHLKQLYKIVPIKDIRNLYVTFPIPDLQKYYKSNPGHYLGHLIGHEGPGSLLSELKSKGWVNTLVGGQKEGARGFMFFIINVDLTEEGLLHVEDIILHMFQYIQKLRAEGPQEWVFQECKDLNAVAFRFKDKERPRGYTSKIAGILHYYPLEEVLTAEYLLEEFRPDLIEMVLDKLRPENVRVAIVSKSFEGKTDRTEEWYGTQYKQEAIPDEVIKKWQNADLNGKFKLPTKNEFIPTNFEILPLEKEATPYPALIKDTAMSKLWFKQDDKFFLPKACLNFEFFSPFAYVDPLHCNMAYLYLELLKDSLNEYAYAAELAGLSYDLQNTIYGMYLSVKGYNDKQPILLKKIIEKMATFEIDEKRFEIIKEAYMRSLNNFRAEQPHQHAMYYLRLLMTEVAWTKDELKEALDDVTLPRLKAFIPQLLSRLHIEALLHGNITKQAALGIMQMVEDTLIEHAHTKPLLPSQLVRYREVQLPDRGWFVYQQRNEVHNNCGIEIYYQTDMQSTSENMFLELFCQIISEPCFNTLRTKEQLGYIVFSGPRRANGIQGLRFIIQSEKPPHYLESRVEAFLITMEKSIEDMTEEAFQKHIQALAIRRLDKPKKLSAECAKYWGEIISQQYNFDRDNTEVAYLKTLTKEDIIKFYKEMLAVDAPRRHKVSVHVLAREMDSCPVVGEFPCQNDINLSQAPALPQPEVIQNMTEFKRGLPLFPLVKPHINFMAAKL

[8] = biological target: Kappa-type opioid receptor (Homo sapiens, UniProt P41145); test: SAR analysis of small molecule agonists of the kappa opioid receptor via a luminescent beta-arrestin assay - Set 3. [Related pubchem assays (depositor defined):AID1777, AID1785, AID1786, AID1966, AID2133, AID2136, AID2284, AID2500]; assay type: functional
[9] = biological target: Voltage-dependent T-type calcium channel subunit alpha-1H (Homo sapiens, UniProt O95180); test: Cav3.2 T-type channel inhibitors, synthesized analogs, SAR follow-up, cell-based, synthetic library set 2, HEK293 HH8, Fluo-4 (AID 493023); assay type: functional
Sequence of Voltage-dependent T-type calcium channel subunit alpha-1H (O95180 whole entry): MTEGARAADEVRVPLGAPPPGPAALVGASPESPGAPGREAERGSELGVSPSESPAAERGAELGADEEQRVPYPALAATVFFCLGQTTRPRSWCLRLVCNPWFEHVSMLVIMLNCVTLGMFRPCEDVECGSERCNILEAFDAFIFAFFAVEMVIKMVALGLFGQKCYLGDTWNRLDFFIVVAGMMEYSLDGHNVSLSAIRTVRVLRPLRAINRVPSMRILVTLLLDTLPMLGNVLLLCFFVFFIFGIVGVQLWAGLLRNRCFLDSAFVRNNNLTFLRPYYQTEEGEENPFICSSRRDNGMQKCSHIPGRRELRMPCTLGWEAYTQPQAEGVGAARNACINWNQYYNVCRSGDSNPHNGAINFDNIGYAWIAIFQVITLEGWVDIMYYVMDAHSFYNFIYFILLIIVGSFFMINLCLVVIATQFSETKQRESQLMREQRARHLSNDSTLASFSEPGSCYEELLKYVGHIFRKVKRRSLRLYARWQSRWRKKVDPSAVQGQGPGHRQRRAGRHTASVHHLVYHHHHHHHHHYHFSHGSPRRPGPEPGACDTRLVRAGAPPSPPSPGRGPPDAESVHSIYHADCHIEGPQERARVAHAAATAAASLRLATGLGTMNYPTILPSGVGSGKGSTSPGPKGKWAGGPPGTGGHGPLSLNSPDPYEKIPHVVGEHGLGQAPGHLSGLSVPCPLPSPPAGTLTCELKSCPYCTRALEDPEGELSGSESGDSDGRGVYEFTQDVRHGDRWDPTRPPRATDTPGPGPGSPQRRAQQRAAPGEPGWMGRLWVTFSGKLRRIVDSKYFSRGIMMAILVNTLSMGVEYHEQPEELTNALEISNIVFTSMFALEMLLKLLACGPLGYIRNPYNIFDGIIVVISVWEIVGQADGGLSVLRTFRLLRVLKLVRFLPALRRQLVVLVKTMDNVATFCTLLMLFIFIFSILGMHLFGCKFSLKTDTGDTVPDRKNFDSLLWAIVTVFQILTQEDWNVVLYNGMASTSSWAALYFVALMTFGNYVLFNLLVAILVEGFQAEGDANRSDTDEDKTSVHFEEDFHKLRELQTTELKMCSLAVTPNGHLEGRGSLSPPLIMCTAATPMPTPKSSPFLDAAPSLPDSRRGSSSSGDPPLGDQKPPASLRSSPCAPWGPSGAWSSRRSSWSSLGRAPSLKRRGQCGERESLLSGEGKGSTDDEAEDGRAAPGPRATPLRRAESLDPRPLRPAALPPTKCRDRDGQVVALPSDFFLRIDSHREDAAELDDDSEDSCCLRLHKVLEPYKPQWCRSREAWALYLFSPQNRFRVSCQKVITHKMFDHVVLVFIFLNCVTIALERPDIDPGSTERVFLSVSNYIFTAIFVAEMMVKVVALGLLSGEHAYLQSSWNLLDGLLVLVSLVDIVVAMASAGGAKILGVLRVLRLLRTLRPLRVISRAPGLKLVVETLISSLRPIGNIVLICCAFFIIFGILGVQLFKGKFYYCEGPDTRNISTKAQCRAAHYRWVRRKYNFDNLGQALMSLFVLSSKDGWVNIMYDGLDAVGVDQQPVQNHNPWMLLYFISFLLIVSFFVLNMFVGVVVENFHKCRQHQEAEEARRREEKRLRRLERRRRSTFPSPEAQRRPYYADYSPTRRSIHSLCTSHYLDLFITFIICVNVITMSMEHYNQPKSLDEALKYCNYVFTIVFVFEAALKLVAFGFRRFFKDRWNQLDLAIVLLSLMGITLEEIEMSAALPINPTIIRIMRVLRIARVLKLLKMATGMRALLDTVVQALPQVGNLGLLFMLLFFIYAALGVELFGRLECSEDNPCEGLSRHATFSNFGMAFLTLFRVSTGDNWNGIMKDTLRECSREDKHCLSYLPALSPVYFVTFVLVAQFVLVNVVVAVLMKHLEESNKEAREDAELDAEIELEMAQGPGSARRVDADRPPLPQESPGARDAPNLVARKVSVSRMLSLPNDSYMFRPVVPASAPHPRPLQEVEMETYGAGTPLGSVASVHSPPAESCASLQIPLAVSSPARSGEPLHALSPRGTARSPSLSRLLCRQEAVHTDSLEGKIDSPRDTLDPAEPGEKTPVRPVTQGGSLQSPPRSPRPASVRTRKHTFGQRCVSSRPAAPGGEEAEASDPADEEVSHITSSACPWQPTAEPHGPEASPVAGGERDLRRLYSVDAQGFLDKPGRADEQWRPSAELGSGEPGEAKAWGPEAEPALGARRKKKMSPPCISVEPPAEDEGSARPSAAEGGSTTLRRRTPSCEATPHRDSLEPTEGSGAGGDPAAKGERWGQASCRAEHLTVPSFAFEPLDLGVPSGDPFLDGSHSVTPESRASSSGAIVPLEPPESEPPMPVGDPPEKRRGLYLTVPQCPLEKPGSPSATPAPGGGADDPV

T1 sequence (P98170 whole entry): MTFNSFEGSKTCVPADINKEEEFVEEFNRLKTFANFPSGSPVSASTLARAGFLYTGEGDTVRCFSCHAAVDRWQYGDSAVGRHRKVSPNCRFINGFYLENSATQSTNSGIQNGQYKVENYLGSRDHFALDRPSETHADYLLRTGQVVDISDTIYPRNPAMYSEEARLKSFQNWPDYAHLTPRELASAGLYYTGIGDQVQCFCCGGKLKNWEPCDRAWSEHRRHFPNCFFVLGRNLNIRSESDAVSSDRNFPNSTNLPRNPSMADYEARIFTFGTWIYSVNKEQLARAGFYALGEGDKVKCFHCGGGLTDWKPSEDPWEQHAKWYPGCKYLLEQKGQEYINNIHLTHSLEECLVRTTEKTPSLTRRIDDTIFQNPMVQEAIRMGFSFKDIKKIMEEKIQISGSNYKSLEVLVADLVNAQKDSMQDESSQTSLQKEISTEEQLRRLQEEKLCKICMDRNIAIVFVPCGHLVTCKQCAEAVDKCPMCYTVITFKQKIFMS
Sequence of CAAX prenyl protease 2 (Q9Y256 whole entry, the tested form may be a part): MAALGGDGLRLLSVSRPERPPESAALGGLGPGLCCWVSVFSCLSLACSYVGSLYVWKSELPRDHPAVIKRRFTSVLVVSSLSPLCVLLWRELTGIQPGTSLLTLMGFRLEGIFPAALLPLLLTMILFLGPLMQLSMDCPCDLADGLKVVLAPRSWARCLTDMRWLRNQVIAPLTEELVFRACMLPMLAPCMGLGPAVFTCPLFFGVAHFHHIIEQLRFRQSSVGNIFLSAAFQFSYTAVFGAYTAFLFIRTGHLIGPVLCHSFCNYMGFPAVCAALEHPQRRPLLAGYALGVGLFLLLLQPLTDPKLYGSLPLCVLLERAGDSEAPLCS
Sequence of Kappa-type opioid receptor (P41145 whole entry): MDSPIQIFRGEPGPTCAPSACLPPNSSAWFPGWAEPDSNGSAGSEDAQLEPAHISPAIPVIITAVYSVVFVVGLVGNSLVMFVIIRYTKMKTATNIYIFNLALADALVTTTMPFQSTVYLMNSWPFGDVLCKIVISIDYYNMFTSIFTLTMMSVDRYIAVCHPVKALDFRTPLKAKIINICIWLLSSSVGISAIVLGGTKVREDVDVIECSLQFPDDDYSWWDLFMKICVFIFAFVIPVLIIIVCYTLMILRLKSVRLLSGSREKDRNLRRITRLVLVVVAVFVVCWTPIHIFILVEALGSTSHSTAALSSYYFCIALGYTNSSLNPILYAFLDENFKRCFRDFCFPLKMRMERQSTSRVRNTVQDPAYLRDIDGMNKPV
Sequence of Sphingosine 1-phosphate receptor 1 (P21453 whole entry): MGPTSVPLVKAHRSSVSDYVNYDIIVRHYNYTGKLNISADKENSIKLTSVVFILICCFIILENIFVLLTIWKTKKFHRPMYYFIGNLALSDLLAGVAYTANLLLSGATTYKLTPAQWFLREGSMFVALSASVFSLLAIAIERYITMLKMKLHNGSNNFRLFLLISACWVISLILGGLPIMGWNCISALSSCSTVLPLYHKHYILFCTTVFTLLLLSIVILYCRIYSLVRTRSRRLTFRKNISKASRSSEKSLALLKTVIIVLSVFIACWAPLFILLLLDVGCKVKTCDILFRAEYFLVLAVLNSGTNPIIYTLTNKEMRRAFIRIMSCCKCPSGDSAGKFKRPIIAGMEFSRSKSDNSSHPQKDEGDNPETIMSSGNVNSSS

IC50 [1]: > 100 µM (inactive)
IC50 [2]: > 100 µM (not active)
SMILES: C=CCNC(=O)/C(C#N)=C/c1cn(-c2ccccc2)nc1-c1ccc(OC)c([N+](=O)[O-])c1

SMILES: COc1ccc(C2CC(c3cccs3)=NN2c2ccc(C=O)cc2)cc1 (stereo unspecified)
EC50 [3]: 8.63 µM (active)
EC50 [4]: 12.5 µM (inactive)
AC50 (CAAX prenyl protease 2): 8.53 µM (active)
EC50 [5]: 18.3 µM (active)
EC50 [6]: 24.6 µM (active)
IC50 [7]: 41.2 µM (not active)
IC50 (Insulin-degrading enzyme): > 55.9 µM (not active)

EC50 [8]: 8.51 µM (active)
SMILES: Brc1ccc(CSc2nnc(-c3ccccn3)n2Cc2cccnc2)cc1

EC50 [9]: 10 µM (active)
SMILES: CC(C)(C)CCN1CCC[C@@H](NC(=O)c2ccc(Cl)cc2Cl)C1
